What was measured:
Settings in all cases: exposure: 6-8 hpf to 5 dpf, scored at 6 dpf
[1] = tested on: Danio rerio embryo/larva; test: max % larvae with edema across tested concentrations; higher = more toxic; extreme values may be limits of the assay
[2] = tested on: Danio rerio embryo/larva; test: max % larvae with abnormal position across tested concentrations; higher = more toxic; extreme values may be limits of the assay
[3] = tested on: Danio rerio embryo/larva; test: max % larvae with tail defects across tested concentrations; higher = more toxic; extreme values may be limits of the assay
[4] = tested on: Danio rerio embryo/larva; test: max % larvae with blood pooling across tested concentrations; higher = more toxic; extreme values may be limits of the assay
[5] = tested on: Danio rerio embryo/larva; test: max % larvae with spinal defects across tested concentrations; higher = more toxic; extreme values may be limits of the assay
[6] = tested on: Danio rerio embryo/larva; test: BMC general abnormality; higher = less potent
Protocol: (§1)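 Zebrafish embryos (with chorion) were exposed from 6-8 hpf to each PFAS (8-point half-log series, top concentration up to 100 uM, 0.4% DMSO, sealed plates, 26 C; n = 6 embryos per concentration), rinsed at 5 dpf and scored at 6 dpf by two blinded observers for mortality, hatching and malformations. Endpoint scores are the % of living larvae affected (dead larvae excluded; […]). Curves were fitted with tcpl (cutoff 16%), and the BMC is the concentration at a benchmark response of 21.6%.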

[7] = tested on: Danio rerio embryo/larva; test: max % larvae with craniofacial defects across tested concentrations; higher = more toxic; extreme values may be limits of the assay
[8] = tested on: Danio rerio embryo/larva; test: max % larvae with pigmentation defects across tested concentrations; higher = more toxic
[9] = tested on: Danio rerio embryo/larva; test: max % larvae generally abnormal across tested concentrations; higher = more toxic; extreme values may be limits of the assay
[10] = tested on: Danio rerio embryo/larva; test: max % larvae with uninflated swim bladder across tested concentrations; higher = more toxic; extreme values may be limits of the assay
[11] = tested on: Danio rerio embryo/larva; test: max % larvae with any abnormality across tested concentrations; max tested concentration (log10 uM): 2; higher = more toxic; extreme values may be limits of the assay
[12] = tested on: Danio rerio embryo/larva; test: BMC any abnormality; max tested concentration (log10 uM): 2; higher = less potent
Protocol: as §1

[13] = tested on: Danio rerio embryo/larva; test: BMC edema; higher = less potent
Protocol: as §1

[14] = tested on: Danio rerio embryo/larva; test: max % larvae unhatched across tested concentrations; max tested concentration (log10 uM): 2; higher = more toxic
[15] = tested on: Danio rerio embryo/larva; test: BMC swim bladder non-inflation; higher = less potent
Protocol: as §1

[16] = max tested concentration (log10 uM): 2
[17] = max tested concentration (log10 uM): 0

Row | SMILES | max % larvae [1] [%] | max % larvae [2] [%] | max % larvae [3] [%] | max % larvae [4] [%] | max % larvae [5] [%] | BMC general abnormality [6] [µM] | max % larvae [7] [%] | max % larvae [8] [%] | max % larvae generally abnormal across tested concentrations [9] [%] | max % larvae [10] [%] | max % larvae [11] [%] | BMC any abnormality [12] [µM] | BMC edema [13, 16] [µM] | max % larvae unhatched across tested concentrations [14] [%] | BMC swim bladder non-inflation [15, 16] [µM] | BMC edema [13, 17] [µM] | BMC swim bladder non-inflation [15, 17] [µM]
1 | O=C(O)C(F)(F)C(F)(F)C(F)(F)C(F)(F)C(F)(F)C(F)(F)C(F)(F)C(F)(F)C(F)(F)C(F)F [11-H-Perfluoroundecanoic acid] (max tested concentration (log10 uM): 1.47712) | 100 | 50 | 100 | 100 | 0 | 12.6 | 100 | 0 | 100 | 100 | – | – | – | – | – | – | –
2 | FC(F)(I)C(F)(F)C(F)(F)C(F)(F)I [Perfluoro-1,4-diiodobutane] (max tested concentration (log10 uM): 2) | 58.3 | 16.7 | 20.8 | 20 | 16.7 | 20.6 | 50 | 0 | 58.3 | 66.7 | – | – | – | – | – | – | –
3 | O=C(O)CCC(F)(F)C(F)(F)C(F)(F)C(F)(F)C(F)(F)C(F)(F)F [3-(Perfluorohexyl)propanoic acid] (max tested concentration (log10 uM): 1) | 25 | 4.17 | 12.5 | 0 | 0 | 9.01 | 16.7 | 0 | 25 | 16.7 | – | – | – | – | – | – | –
4 | CNS(=O)(=O)C(F)(F)C(F)(F)C(F)(F)C(F)(F)C(F)(F)C(F)(F)C(F)(F)C(F)(F)F [N-Methylperfluorooctanesulfonamide] | – | – | – | – | – | – | – | – | – | – | 95.8 | 0.702 | 20.1 | 0 | 0.439 | – | –
5 | O=C(O)C(F)(F)C(F)(F)C(F)(F)C(F)(F)C(F)(F)C(F)(F)C(F)(F)C(F)(F)Cl [9-Chloro-perfluorononanoic acid] (max tested concentration (log10 uM): 2) | 100 | 25 | 75 | 41.7 | 50 | 9.23 | 100 | 0 | 100 | 100 | – | – | – | – | – | – | –
6 | CCNS(=O)(=O)C(F)(F)C(F)(F)C(F)(F)C(F)(F)C(F)(F)C(F)(F)C(F)(F)C(F)(F)F [N-Ethylperfluorooctane sulfonamide] (max tested concentration (log10 uM): 1) | 41.7 | 8.33 | 0 | 16.7 | 0 | 2.91 | 8.33 | 0 | 58.3 | 83.3 | – | – | – | – | – | – | –
7 | O=C(O)C(F)(F)OC(F)(F)C(F)(F)OC(F)(F)C(F)(F)OC(F)(F)C(F)(F)C(F)(F)C(F)(F)F [Perfluoro-3,6,9-trioxatridecanoic acid] (max tested concentration (log10 uM): 1) | 50 | 50 | 0 | 16.7 | 0 | 1.51 | 0 | 0 | 50 | 100 | – | – | – | – | – | – | –
8 | O=C(O)C(F)(F)C(F)(F)C(F)(F)C(F)(F)C(F)(F)C(F)(F)C(F)(F)C(F)(F)C(F)(F)F [Perfluorodecanoic acid] (max tested concentration (log10 uM): 1.47712) | 50 | 0 | 0 | 0 | 0 | 11.2 | 0 | 0 | 50 | 100 | – | – | – | – | – | – | –
9 | C=CC(=O)OCCC(F)(F)C(F)(F)C(F)(F)C(F)(F)F [2-(Perfluorobutyl)ethyl acrylate] (max tested concentration (log10 uM): 2) | 0 | 0 | 0 | 0 | 0 | 74.8 | 0 | 0 | 50 | 100 | – | – | – | – | – | – | –
10 | OCC(F)(F)C(F)(F)C(F)(F)C(F)(F)C(F)(F)C(F)(F)F [6:1 Fluorotelomer alcohol] | – | – | – | – | – | – | – | – | – | – | 75 | 73.3 | 94.1 | 0 | – | – | –
11 | C=CC(=O)OCC(F)(F)C(F)(F)C(F)(F)C(F)(F)COC(=O)C=C [1H,1H,6H,6H-Perfluorohexane-1,6-diol diacrylate] (max tested concentration (log10 uM): 1) | 25 | 4.17 | 0 | 0 | 0 | 7.57 | 8.33 | 0 | 25 | 50 | – | – | – | – | – | – | –
12 | NS(=O)(=O)C(F)(F)C(F)(F)C(F)(F)C(F)(F)C(F)(F)C(F)(F)F [Perfluorohexanesulfonamide] (max tested concentration (log10 uM): 0.477121) | 85 | 30 | 10 | 0 | 5 | 1.66 | 70 | 0 | 85 | 100 | – | – | – | – | – | – | –
13 | NS(=O)(=O)C(F)(F)C(F)(F)C(F)(F)C(F)(F)C(F)(F)C(F)(F)C(F)(F)C(F)(F)F [Perfluorooctanesulfonamide] | – | – | – | – | – | – | – | – | – | – | 100 | 0.261 | – | 0 | – | 0.563 | 0.313

From the supplement of paper PMC11281043
